Like-named read-outs stand apart in the source and are kept apart here.
Tests used:
Plasma protein binding = assay type: in vitro ADME; conditions: n = 6, read-out: plasma protein binding rate (converted)
[1] = Pharmacokinetics after IV administration in mice; assay type: in vivo; conditions: plasma; for AUC(0-inf) / MRT / clearance / half-life / AUC(0-t) / Vd: male, ICR, mouse; for AUC(0-t): read-out: AUC24h; for Vd: read-out: Vdss
Description: Male ICR mice (7 weeks old, […]; Samtako, Osan, Korea) were acclimated to the animal facility at Kyungpook National University for one week with free access to animal chow and water. In the per oral administration (PO) groups, the mice were fasted for 14–16 h prior to the administration of 2-QBA.
For intravenous (IV) administration, 2-QBA (0.5 mg/kg in 3 mL of saline containing 10% DMSO) was injected via the tail vein for eight mice that were randomly divided into two groups for sparse sampling. Blood samples were collected via the jugular vein at 0.083, 0.5, 2, and 8 h from 4 mice and at 0.25, 1, 4, and 24 h from another 4 mice. Eight mice were administered 1 mg/kg of 2-QBA using the same protocol described above.
After the PO administration of 2-QBA (2 mg/kg in 5 mL of saline containing 10% DMSO) using an oral gavage for 10 mice, blood samples were collected at 0.25, 0.75, 2, and 8 h from 5 mice and at 0.5, 1, 4, and 24 h from another 5 mice. Ten mice in each group were administered 5 mg/kg or 15 mg/kg of 2-QBA using an oral gavage and blood was drawn using the same protocol described above. All blood samples were centrifuged at 13,000× g for 1 min and the supernatant plasma (30 μL) was stored at −80 °C until the analysis of the 2-QBA. For the analysis of 2-QBA in the plasma samples, 120 μL of IS solution (berberine 1 ng/mL in acetonitrile) was added to plasma samples (30 μL). The mixture was vigorously vortexed for 5 min and then centrifuged at 13,000× g for 5 min. The supernatant was transferred to autosampler vials. Subsequently, a 3 μL aliquot was injected into the LC-MS/MS system.
(§1) WinNonlin 5.1 software (Pharsight Co., Mountain View, CA, USA) was used to calculate the pharmacokinetic parameters. AUClast and AUCinf indicate the areas under the plasma concentration curve from 0 h to the last sample and from 0 h to infinity, respectively; these were estimated using the linear trapezoidal method. T1/2 is the elimination half-life, which is estimated from the elimination coefficient (k) (i.e., 0.693/k), and MRT is the mean residence time. CL is the total clearance, which is calculated by dividing the dose by AUCinf. Vdss is the volume of the distribution at a steady state, calculated from MRTxCL. CLrenal and CLfeces are calculated by dividing the amount excreted in urine and feces by the AUCinf, respectively. CLmetabolism is calculated by subtracting CLrenal and CLfeces from CL. Cmax and Tmax are the maximum plasma concentration and time to reach Cmax, respectively. BA is calculated by dividing the dose-normalized AUCinf for PO administration (AUCinf/PO dose) by the dose-normalized AUCinf for IV administration (AUCinf/IV dose). All data are expressed as the mean ± standard deviation (SD).

[2] = Stability of 2-QBA in mouse plasma (QC samples); assay type: in vitro ADME; conditions: for Freeze-thaw cycle stability, Accuracy / Bench-top stability, Accuracy: mouse plasma; for Freeze-thaw cycle stability, Accuracy: 3 cycles; for Bench-top stability, Accuracy: 25 °C for 6 h; for Autosampler stability, Accuracy: prepared plasma samples, 6 °C for 24 h
Description: The stability of 2-QBA in mouse plasma was tested in terms of its benchtop stability, freeze–thaw stability, and autosampler stability. In all stability tests, three sets of QC samples (3, 100, and 400 ng/mL) were prepared.
The benchtop stability was tested by incubating the samples at 25 °C for 6 h. For the freeze–thaw stability, the samples were placed at −80 °C for over 12 h for freezing and thawed at 25 °C for 6 h as one cycle; the same protocol was repeated for three cycles. Finally, the autosampler stability was tested by placing the prepared QC samples in the autosampler at 6 °C for 24 h. After analyzing all of the stability test samples, the concentrations were calculated using freshly prepared calibration standards.

[3] = Urinary and fecal excretion after IV or PO administration (metabolic cage); assay type: in vivo; conditions: mice, IV 1.0 mg/kg
Description: We also investigated the excretion profile of 2-QBA after IV and PO administration at doses of 1 mg/kg for IV and 2 mg/kg for PO. After IV or PO administration of 2-QBA, the mice were returned to a metabolic cage to collect the urine and feces samples. The urine and feces samples were collected during the periods of 0–24 h, 24–48 h, 48–72 h, and 72–96 h. The urine ball was washed using equal volumes of methanol and added to the urine samples. The fecal samples were homogenized with 9 volumes of water to yield 10% fecal homogenates. The aliquots (30 μL) of urine and 10% fecal homogenate samples were stored at −80 °C until the analysis of the 2-QBA. For the analysis of the 2-QBA, 120 μL of IS solution was added to the 30 μL aliquot of urine and 10% fecal homogenate samples. The mixture was vigorously vortexed for 5 min and then centrifuged at 13,000× g for 5 min. The supernatant was transferred to autosampler vials. Subsequently, a 3 μL aliquot was injected into the LC-MS/MS system.
as §1, with “Cmax and Tmax are the maximum plasma concentration and time to reach Cmax, respectively.” left out

O=C(O)c1ccccc1NC(=O)c1cccc2cccnc12 [2-QBA, 2-(quinoline-8-carboxamido)benzoic acid] gave a fraction unbound (Plasma protein binding) of 0.128, an AUC24h/dose ([1]; IV 0.5 mg/kg) of 824.7 ± 64.1 ng·h/mL/mg/kg and an AUCinf/dose ([1]; IV 0.5 mg/kg) of 835.6 ± 64.6 ng·h/mL/mg/kg. It also gave an AUC24h/dose ([1]; IV 1.0 mg/kg) of 996.7 ± 146.6 ng·h/mL/mg/kg, an AUCinf/dose ([1]; IV 1.0 mg/kg) of 1044 ± 174.9 ng·h/mL/mg/kg and an AUC(0-inf) ([1]; IV 0.5 mg/kg) of 0.418 ± 0.0323 µg·h/mL. For the same compound, the MRT ([1]; IV 0.5 mg/kg) was 3.88 ± 1.58 h, the clearance ([1]; IV 0.5 mg/kg) was 1.2 ± 0.0918 L/h/kg and the half-life ([1]; IV 0.5 mg/kg) was 4.61 ± 2.19 h. For the same compound, the AUC(0-t) ([1]; IV 0.5 mg/kg) was 0.412 ± 0.0321 µg·h/mL, the Vd ([1]; IV 0.5 mg/kg) was 4.73 ± 2.15 L/kg and the AUC(0-inf) ([1]; IV 1.0 mg/kg) was 1.04 ± 0.175 µg·h/mL. It also gave an MRT ([1]; IV 1.0 mg/kg) of 3.03 ± 1.11 h, a clearance ([1]; IV 1.0 mg/kg) of 0.979 ± 0.169 L/h/kg and a half-life ([1]; IV 1.0 mg/kg) of 5.26 ± 1.31 h. The AUC(0-t) ([1]; IV 1.0 mg/kg) was 0.997 ± 0.147 µg·h/mL, the Vd ([1]; IV 1.0 mg/kg) was 2.88 ± 0.72 L/kg and the “Freeze-thaw cycle stability, Accuracy” value ([2]; nominal 100 ng/mL) was 104.3%. For the same compound, the “Freeze-thaw cycle stability, Accuracy” value ([2]; nominal 400 ng/mL) was 106.4%, the “Bench-top stability, Accuracy” value ([2]; nominal 3 ng/mL) was 98.51% and the “Bench-top stability, Accuracy” value ([2]; nominal 100 ng/mL) was 89.14%. The “Bench-top stability, Accuracy” value ([2]; nominal 400 ng/mL) was 91.55%, the “Autosampler stability, Accuracy” value ([2]; nominal 3 ng/mL) was 109.5% and the “Autosampler stability, Accuracy” value ([2]; nominal 100 ng/mL) was 103.1%. For the same compound, the “Autosampler stability, Accuracy” value ([2]; nominal 400 ng/mL) was 108.7%, the CL renal ([3]; male, ICR, mouse, urine) was 0.328 ± 0.133 L/h/kg and the “Amount excreted in feces for 96 h” value ([3]; parent form) was 9.30 ± 6.17 % of dose. The “Amount excreted in urine for 96 h” value ([3]; parent form) was 13.8 ± 4.24 % of dose.

From article PMC11279551, “Pharmacokinetics and Enterohepatic Circulation of 2-(Quinoline-8-carboxamido)benzoic Acid (2-QBA) in Mice” (Pharmaceutics, 2024)
